The record followed here is patent publication US20230143604A1, “QW DOSING OF GIP RECEPTOR AGONIST PEPTIDE COMPOUNDS AND USES THEREOF” (TAKEDA PHARMACEUTICAL COMPANY LIMITED, priority 2020, published 2023).

For orientation: solubility means how much of the substance goes into solution per volume. The low end stands for little dissolved substance, the high end for much dissolved substance.

SMILES strings stand for the structures. Starred links: 1 amine or outer side, 2 acyl side, 3 side chain; linkers in the order of their positions; H or OH if unused. Non-standard residues stand in square brackets, D forms with d. Residues, ends and D or L forms follow the SMILES beside them. Groups on a side chain read outwards from the residue. *: point of attachment. C20 diacid = O=C(O)CCCCCCCCCCCCCCCCCCC(=O)*; C17 diacid = O=C(O)CCCCCCCCCCCCCCCC(=O)*; γGlu = O=C(O)[C@H](CCC(=O)[*:2])N[*:1]; NMeY = CN[C@@H](Cc1ccc(O)cc1)C(=O)O; AEEA = NCCOCCOCC(=O)O; Aib = CC(C)(N)C(=O)O

A short description of one data set: physchem. As to conditions: pH 7.4, aqueous buffer. Summed up: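 3 mg of peptide treated with 100 μL portions of 200 mM phosphate buffer pH 7.4, sonicating/vortexing up to 1 min, with further buffer added until fully dissolved. Solubility then quantified by HPLC.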
The compound `CC[C@H](C)[C@H](NC(=O)[C@H](Cc1ccccc1)NC(=O)[C@@H](NC(=O)CNC(=O)[C@H](CCC(=O)O)NC(=O)C(C)(C)NC(=O)[C@H](Cc1ccc(O)cc1)NC)[C@@H](C)O)C(=O)N[C@@H](CO)C(=O)N[C@@H](CC(=O)O)C(=O)N[C@@H](Cc1ccc(O)cc1)C(=O)N[C@@H](CO)C(=O)N[C@H](C(=O)NC(C)(C)C(=O)N[C@@H](CC(C)C)C(=O)N[C@@H](CC(=O)O)C(=O)N[C@@H](CCCNC(=N)N)C(=O)N[C@@H](CCCCNC(=O)COCCOCCNC(=O)COCCOCCNC(=O)CC[C@H](NC(=O)CC[C@H](NC(=O)CCCCCCCCCCCCCCCC(=O)O)C(=O)O)C(=O)O)C(=O)N[C@@H](C)C(=O)N[C@@H](CCC(N)=O)C(=O)NC(C)(C)C(=O)N[C@@H](CC(N)=O)C(=O)N[C@@H](Cc1ccccc1)C(=O)N[C@H](C(=O)N[C@@H](CC(N)=O)C(=O)N[C@@H](Cc1c[nH]c2ccccc12)C(=O)N[C@@H](CC(C)C)C(=O)N[C@@H](CC(C)C)C(=O)N[C@@H](C)C(=O)N[C@@H](CCC(N)=O)C(=O)N[C@@H](CCCNC(=N)N)C(=O)NCC(=O)NCC(=O)NCC(=O)NCC(=O)N[C@@H](CO)C(N)=O)C(C)C)[C@@H](C)CC` [Compound 271] (H-[NMeY][Aib]EGTFISDYSI[Aib]LDRK([AEEA-AEEA-γGlu-γGlu-C17 diacid])AQ[Aib]NFVNWLLAQRGGGGS-NH2) registered a solubility not below 6000 µg/mL.

For `CC[C@H](C)[C@H](NC(=O)[C@H](CO)NC(=O)[C@H](Cc1ccc(O)cc1)NC(=O)[C@H](CC(=O)O)NC(=O)[C@H](CO)NC(=O)[C@@H](NC(=O)[C@H](Cc1ccccc1)NC(=O)[C@@H](NC(=O)CNC(=O)[C@H](CCC(=O)O)NC(=O)C(C)(C)NC(=O)[C@H](Cc1ccc(O)cc1)NC)[C@@H](C)O)[C@@H](C)CC)C(=O)N[C@@H](C)C(=O)N[C@@H](CC(C)C)C(=O)N[C@@H](CC(=O)O)C(=O)N[C@@H](CCCNC(=N)N)C(=O)NC(C)(C)C(=O)N[C@@H](C)C(=O)N[C@@H](CCC(N)=O)C(=O)NC(C)(C)C(=O)N[C@@H](CCCCNC(=O)COCCOCCNC(=O)COCCOCCNC(=O)CC[C@H](NC(=O)CC[C@H](NC(=O)CCCCCCCCCCCCCCCCCCC(=O)O)C(=O)O)C(=O)O)C(=O)N[C@@H](Cc1ccccc1)C(=O)N[C@H](C(=O)N[C@@H](CC(N)=O)C(=O)N[C@@H](Cc1c[nH]c2ccccc12)C(=O)N[C@@H](CC(C)C)C(=O)N[C@@H](CC(C)C)C(=O)N[C@@H](C)C(=O)N[C@@H](CCC(N)=O)C(=O)N[C@@H](CCCNC(=N)N)C(N)=O)C(C)C` [Compound 272] (H-[NMeY][Aib]EGTFISDYSIALDR[Aib]AQ[Aib]K([AEEA-AEEA-γGlu-γGlu-C20 diacid])FVNWLLAQR-NH2), the solubility was not below 7500 µg/mL.

Still in this data set, the particulars now being: pH 7.4, aqueous buffer, pH 7.4 Phosphate Buffer - Solubility, 200 mM Phosphate buffer pH 7.4.
`CC[C@H](C)[C@H](NC(=O)[C@H](Cc1ccccc1)NC(=O)[C@@H](NC(=O)CNC(=O)[C@H](CCC(=O)O)NC(=O)C(C)(C)NC(=O)[C@H](Cc1ccc(O)cc1)NC)[C@@H](C)O)C(=O)N[C@@H](CO)C(=O)N[C@@H](CC(=O)O)C(=O)N[C@@H](Cc1ccc(O)cc1)C(=O)N[C@@H](CO)C(=O)N[C@H](C(=O)NC(C)(C)C(=O)N[C@@H](CC(C)C)C(=O)N[C@@H](CC(=O)O)C(=O)N[C@@H](CCCNC(=N)N)C(=O)N[C@@H](CCCCNC(=O)COCCOCCNC(=O)COCCOCCNC(=O)CC[C@H](NC(=O)CC[C@H](NC(=O)CCCCCCCCCCCCCCCC(=O)O)C(=O)O)C(=O)O)C(=O)N[C@@H](C)C(=O)N[C@@H](CCC(N)=O)C(=O)NC(C)(C)C(=O)N[C@@H](CC(N)=O)C(=O)N[C@@H](Cc1ccccc1)C(=O)N[C@H](C(=O)N[C@@H](CC(N)=O)C(=O)N[C@@H](Cc1c[nH]c2ccccc12)C(=O)N[C@@H](CC(C)C)C(=O)N[C@@H](CC(C)C)C(=O)N[C@@H](C)C(=O)N[C@@H](CCC(N)=O)C(=O)N[C@@H](CO)C(=O)N1CCC[C@H]1C(=O)N[C@@H](CO)C(=O)N[C@@H](CO)C(=O)NCC(=O)N[C@@H](C)C(=O)N1CCC[C@H]1C(=O)N1CCC[C@H]1C(=O)N1CCC[C@H]1C(=O)N[C@@H](CO)C(N)=O)C(C)C)[C@@H](C)CC` [Compound 270] (H-[NMeY][Aib]EGTFISDYSI[Aib]LDRK([AEEA-AEEA-γGlu-γGlu-C17 diacid])AQ[Aib]NFVNWLLAQSPSSGAPPPS-NH2) displayed a solubility not below 7500 µg/mL.

`CC[C@H](C)[C@H](NC(=O)[C@H](CO)NC(=O)[C@H](Cc1ccc(O)cc1)NC(=O)[C@H](CC(=O)O)NC(=O)[C@H](CO)NC(=O)[C@@H](NC(=O)[C@H](Cc1ccccc1)NC(=O)[C@@H](NC(=O)CNC(=O)[C@H](CCC(=O)O)NC(=O)C(C)(C)NC(=O)[C@H](Cc1ccc(O)cc1)NC)[C@@H](C)O)[C@@H](C)CC)C(=O)N[C@@H](C)C(=O)N[C@@H](CCCCNC(=O)CNC(=O)CNC(=O)CNC(=O)CNC(=O)CNC(=O)CCCCCCCCCCCCCCCCC(=O)O)C(=O)N[C@@H](CC(=O)O)C(=O)N[C@@H](CCCNC(=N)N)C(=O)NC(C)(C)C(=O)N[C@@H](C)C(=O)N[C@@H](CCC(N)=O)C(=O)NC(C)(C)C(=O)N[C@@H](CC(N)=O)C(=O)N[C@@H](Cc1ccccc1)C(=O)N[C@H](C(=O)N[C@@H](CC(N)=O)C(=O)N[C@@H](Cc1c[nH]c2ccccc12)C(=O)N[C@@H](CC(C)C)C(=O)N[C@@H](CC(C)C)C(=O)N[C@@H](C)C(=O)N[C@@H](CCC(N)=O)C(=O)N[C@@H](CO)C(=O)N1CCC[C@H]1C(=O)N[C@@H](CO)C(=O)N[C@@H](CO)C(=O)NCC(=O)N[C@@H](C)C(=O)N1CCC[C@H]1C(=O)N1CCC[C@H]1C(=O)N1CCC[C@H]1C(=O)N[C@@H](CO)C(N)=O)C(C)C` [Compound 273] displayed a solubility not below 6000 µg/mL.

Regarding `CC[C@H](C)[C@H](NC(=O)[C@H](CO)NC(=O)[C@H](Cc1ccc(O)cc1)NC(=O)[C@H](CC(=O)O)NC(=O)[C@H](CO)NC(=O)[C@@H](NC(=O)[C@H](Cc1ccccc1)NC(=O)[C@@H](NC(=O)CNC(=O)[C@H](CCC(=O)O)NC(=O)C(C)(C)NC(=O)[C@H](Cc1ccc(O)cc1)NC)[C@@H](C)O)[C@@H](C)CC)C(=O)N[C@@H](C)C(=O)N[C@@H](CCCCNC(=O)CNC(=O)CNC(=O)CNC(=O)CNC(=O)CNC(=O)CCCCCCCCCCCCCCCCC(=O)O)C(=O)N[C@@H](CC(=O)O)C(=O)N[C@@H](CCCNC(=N)N)C(=O)NC(C)(C)C(=O)N[C@@H](C)C(=O)N[C@@H](CCC(N)=O)C(=O)NC(C)(C)C(=O)N[C@@H](CC(=O)O)C(=O)N[C@@H](Cc1ccccc1)C(=O)N[C@H](C(=O)N[C@@H](CC(N)=O)C(=O)N[C@@H](Cc1c[nH]c2ccccc12)C(=O)N[C@@H](CC(C)C)C(=O)N[C@@H](CC(C)C)C(=O)N[C@@H](C)C(=O)N[C@@H](CCC(N)=O)C(=O)N[C@@H](CCCNC(=N)N)C(=O)N1CCC[C@H]1C(=O)N[C@@H](CO)C(=O)N[C@@H](CO)C(=O)NCC(=O)N[C@@H](C)C(=O)N1CCC[C@H]1C(=O)N1CCC[C@H]1C(=O)N1CCC[C@H]1C(=O)N[C@@H](CO)C(N)=O)C(C)C` [Compound 274], the solubility was not below 10000 µg/mL.

`CC[C@H](C)[C@H](NC(=O)[C@H](Cc1ccccc1)NC(=O)[C@@H](NC(=O)CNC(=O)[C@H](CCC(=O)O)NC(=O)C(C)(C)NC(=O)[C@H](Cc1ccc(O)cc1)NC)[C@@H](C)O)C(=O)N[C@@H](CO)C(=O)N[C@@H](CC(=O)O)C(=O)N[C@@H](Cc1ccc(O)cc1)C(=O)N[C@@H](CO)C(=O)N[C@H](C(=O)NC(C)(C)C(=O)N[C@@H](CCCCNC(=O)CNC(=O)CNC(=O)CNC(=O)CNC(=O)CNC(=O)CCCCCCCCCCCCCCCCC(=O)O)C(=O)N[C@@H](CC(=O)O)C(=O)N[C@@H](CCCNC(=N)N)C(=O)NC(C)(C)C(=O)N[C@@H](C)C(=O)N[C@@H](CCC(N)=O)C(=O)NC(C)(C)C(=O)N[C@@H](CC(N)=O)C(=O)N[C@@H](Cc1ccccc1)C(=O)N[C@H](C(=O)N[C@@H](CC(N)=O)C(=O)N[C@@H](Cc1c[nH]c2ccccc12)C(=O)N[C@@H](CC(C)C)C(=O)N[C@@H](CC(C)C)C(=O)N[C@@H](C)C(=O)N[C@@H](CCC(N)=O)C(=O)N[C@@H](CO)C(=O)N1CCC[C@H]1C(=O)N[C@@H](CO)C(=O)N[C@@H](CO)C(=O)NCC(=O)N[C@@H](C)C(=O)N1CCC[C@H]1C(=O)N1CCC[C@H]1C(=O)N1CCC[C@H]1C(=O)N[C@@H](CO)C(N)=O)C(C)C)[C@@H](C)CC` [Compound 275] gave a solubility of less than 15000 µg/mL.

`CC[C@H](C)[C@H](NC(=O)[C@H](Cc1ccccc1)NC(=O)[C@@H](NC(=O)CNC(=O)[C@H](CCC(=O)O)NC(=O)C(C)(C)NC(=O)[C@H](Cc1ccc(O)cc1)NC)[C@@H](C)O)C(=O)N[C@@H](CO)C(=O)N[C@@H](CC(=O)O)C(=O)N[C@@H](Cc1ccc(O)cc1)C(=O)N[C@@H](CO)C(=O)N[C@H](C(=O)NC(C)(C)C(=O)N[C@@H](CCCCNC(=O)CNC(=O)CNC(=O)CNC(=O)CNC(=O)CNC(=O)CCCCCCCCCCCCCCCCC(=O)O)C(=O)N[C@@H](CC(=O)O)C(=O)N[C@@H](CCCNC(=N)N)C(=O)NC(C)(C)C(=O)N[C@@H](C)C(=O)N[C@@H](CCC(N)=O)C(=O)NC(C)(C)C(=O)N[C@@H](CC(=O)O)C(=O)N[C@@H](Cc1ccccc1)C(=O)N[C@H](C(=O)N[C@@H](CC(N)=O)C(=O)N[C@@H](Cc1c[nH]c2ccccc12)C(=O)N[C@@H](CC(C)C)C(=O)N[C@@H](CC(C)C)C(=O)N[C@@H](C)C(=O)N[C@@H](CCC(N)=O)C(=O)N[C@@H](CCCNC(=N)N)C(=O)N1CCC[C@H]1C(=O)N[C@@H](CO)C(=O)N[C@@H](CO)C(=O)NCC(=O)N[C@@H](C)C(=O)N1CCC[C@H]1C(=O)N1CCC[C@H]1C(=O)N1CCC[C@H]1C(=O)N[C@@H](CO)C(N)=O)C(C)C)[C@@H](C)CC` [Compound 276] registered a solubility of less than 15000 µg/mL.
